Key:
[1] = tested on: hair growth; settings: shaved mice; cited from earlier work
[2] = tested on: skin lesions; assay: Skin lesions in pig treated topically with RT175; format: in vivo; settings: single pig, 120 ng topically daily
Method: A single pig underwent bilateral, slit thickness, skin surgery leaving lesions on opposite sides of the pig. One of these lesions was then treated topically with 120 ng of RT175, daily. The other lesion was treated with vehicle only. […] See FIG. 3 and compare 3(b) to 3(a). The de novo hair growth is consistent with the regeneration of the upper hair follicles, most of which would have been removed as the […] sliced through the skin in creating the split thickness wounds.

[3] = tested on: scalp; assay: Scalp closure following craniotomy in rats treated with RT175; format: in vivo; settings: RT175 treatment
Source text: Rats which had undergone brain surgery to test RT175 mediated regeneration of the brain following stroke. Following surgery, the scalp was closed.

[4] = tested on: androgenic alopecia; assay: person with androgenic alopecia treated topically with RT175 and RT175/minoxidil; format: in vivo, human; settings: 4 months; 120 ng/mL RT175, 1 mL twice daily on crown
Method: The subject went on treatment holiday for 1 month, before beginning treatment with 120 ng/mL of RT175 and 5% w/v minoxidil in 30% w/v ethanol, 50% w/v propylene glycol and 20% w/v water. FIG. 4(c) depicts the subjects scalp before initiation of the second round of treatment.

[5] = tested on: hair; settings: rats after craniotomy prior to neurosurgery; cited from earlier work
[6] = target: T1, FKBP52 (Homo sapiens, UniProt Q02790); settings: fibroblasts treated for 2 hours; cited from earlier work
T1 construct: endogenous in cells
T1 sequence (Q02790 1-459): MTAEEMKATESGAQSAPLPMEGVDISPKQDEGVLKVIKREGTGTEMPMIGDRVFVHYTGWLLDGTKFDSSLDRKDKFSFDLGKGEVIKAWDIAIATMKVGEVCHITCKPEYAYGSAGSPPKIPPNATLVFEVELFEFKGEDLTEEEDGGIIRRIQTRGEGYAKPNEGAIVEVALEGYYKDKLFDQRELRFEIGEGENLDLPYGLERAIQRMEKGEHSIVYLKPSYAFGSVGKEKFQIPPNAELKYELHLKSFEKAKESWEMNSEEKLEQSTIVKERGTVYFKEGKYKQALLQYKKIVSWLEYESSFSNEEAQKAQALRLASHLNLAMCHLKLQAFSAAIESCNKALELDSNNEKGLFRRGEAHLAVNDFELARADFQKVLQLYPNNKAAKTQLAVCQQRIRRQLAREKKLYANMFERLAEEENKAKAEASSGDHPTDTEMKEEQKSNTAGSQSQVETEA

[7] = tested on: mouse dorsal skin; assay: Punch biopsies of mouse dorsal skin treated topically with RT175; format: in vivo, mice
Method: Mice underwent 5 millimeter, full thickness, punch biopsies of their dorsal skin. Mice were then treated topically with 120 nanograms (“ng”) of RT175, daily.

[8] = target: T2, FK506 binding protein 4 (“FKBP52”) (Homo sapiens, UniProt Q02790); settings: cited from earlier work
T2 sequence (Q02790 1-459): T1 sequence (Q02790 1-459)

[9] = tested on: dermabrasion lesions of dorsal skin; assay: Dermabrasion lesions of dorsal skin of mice treated with RT1061; format: in vivo, ICR mice; settings: 5 μL of 100 nanomolar topically once daily, 10 days
Method: Retired ICR breeder mice of both sexes with weight between 45 and 50 grams were shaved and rasped to induce dermabrasion lesions. The animals were then randomly assigned (5 per treatment arm) to one of two groups to receive either 5 μL of 100 nanomolar RT1061 or a vehicle control. RT1061 or vehicle control was applied topically to the lesion site once each day including immediately after dermabrasion.

[10] = tested on: androgenetic alopecia; settings: at 6-months, cited from earlier work

## CCC(C)(C)C(=O)C(=O)N1CCC[C@H]1C(=O)O [RT175]
[1]
  hair growth: induce hair growth
[2]
  hair regeneration in the lesion: regeneration of hair
  lesion healing versus vehicle-treated lesion: early and transient appearance of granulation tissue, followed by rapid revascularization, invasion of newly formed skin from wound edges, accelerated repigmentation
[3]
  scalp closure after brain surgery: full scalp closure
[4]
  hair growth: absence of hair growth
[5]
  hair regrowth: re-grow hair
[6]
  FKBP52 localisation: translocation of FKBP52 to the nucleus
[7]; 5 days after punch biopsy, 120 ng RT175 topically daily
  healing of the wound site versus vehicle: clearly accelerated
[7]; 9 days after punch biopsy, 120 ng topically daily
  treated wounds completely closed: 80%
[7]; 9 days after punch biopsy, intact follicles even in the middle of the wound
  hair regeneration in the wound: robust hair regeneration
[7]; after day 9, 120 ng topically daily
  time for the other 20% of treated wounds to close: ≤ 18 h
[8]
  binding affinity: high affinity

## CCC(C)(C)C(=O)C(=O)N1CCCC1Cc1ccccc1 (stereo not shown) [RT1061]
[9]
  hair growth: rapid hair growth
  skin regeneration: rapid regeneration of rasped skin

## Nc1cc(N2CCCCC2)nc(N)[n+]1[O-] [minoxidil]
[10]
  treated individuals who maintained existing hair with no additional loss: 50%
[10]; minoxidil treatment
  treated individuals with new hair growth: 15%

— patent US10285977B2, “Compositions and methods for treating alopecia” (David Weinstein Consulting, Inc., priority 2015, dated 2019)
